# Earlier results, collected in US20100239682A1, “COLONIC DELIVERY OF ANTIMICROBIAL AGENTS” (priority 2007, published 2010).
# Assays:
# Enterobacteriaceae = details: human volunteers, oral, different dosages
# [1] = human volunteers, high doses
substance,measurement,setting,value
colistin [Colimycin],effectiveness at achieving selective decontamination,Enterobacteriaceae,only high dosages of Colimycin were effective
same,tolerance at the gastric level,[1],very poorly tolerated
